pEC50, pIC50: −log10 of the molar value. Where two headings read alike, the source gives them in different places.
Experiments:
[1] = system: T. gondii tachyzoites, parental control; assay: Proliferation EC50, host fibroblast nuclei count, parental control; format: cell-based; details: Toxoplasma gondii
Experimental: (§1) Human Foreskin Fibroblasts (HFF) were cultured in DMEM, with D-glucose (4.5 g/L), L-glutamine, and sodium pyruvate (110 mg/L) (Gibco) that were further supplemented with 10% Fetal Clone 1 serum (FCS)(HyClone), 50 U/mL penicillin (Gibco), […] streptomycin (Gibco), and 1× GlutaMax (Gibco). HFF cells were cultured in T25 flasks (Corning) in a humidified incubator at 37 °C and 5% CO2. For culture, media was replaced with DMEM, as described above, with 1% FCS. Mutant strains were created as described in.
(§2) Presence of desired mutations in parasite lines, TgCDPK1^G128M, TgCDPK1^G128M + TgMAPKL1^L162Q and […] was verified through sequencing. Compounds were dissolved in DMSO and serially diluted 4-fold across the first 10 wells of a 96 well plate, with the highest drug concentration in the first column being 25 μM. The strain of was then added to the first 11 columns of the 96-well plate at a density of 4000 parasites per well. The 11th column contained no compounds, and the 12th column contained no parasites and no compound. After 5 days of incubation at 37 °C and 5% CO2, cells were washed with PBS and fixed with 4% PFA in PBS (Thermo Fisher Scientific, Waltham, MA, USA). After fixing, cells were washed three times with PBS and stained with 300 nM DAPI in PBS before being washed again three times with PBS.
(§3) Images were acquired in an ImageXpress Pico Automated Cell Imaging System (Molecular Devices, San Jose, CA, USA) with a 4× objective using UV fluorescence. Following imaging, ImageXpress software was used to count objects with a fluorescence intensity ≥8 and a size of 12–30 μm, giving a total count of host cell nuclei for each well. EC50 were determined based on the number of remaining fibroblast nuclei using a nonlinear regression analysis with GraphPad Prism software version 10.0.0 for Windows, GraphPad Software, Boston, Massachusetts USA. Each compound was tested in ≥3 experiments in quadruplicate rows.

[2] = system: T. gondii RH strain with L162Q substitution in TgMAPKL1; assay: Proliferation EC50, β-galactosidase readout, TgMAPKL1 L162Q; format: cell-based
Experimental: as §1
An RH strain of with an L162Q substitution in TgMAPKL1 introduced by CRISPR/Cas9 site directed mutagenesis into a clone expressing β-galactosidase was used to determine the EC50s for proliferation. Compounds were dissolved in DMSO and serially diluted 4-fold across the first 11 columns of a 96 well plate from the highest concentration of 25 μM leaving the final column with no drugs. was added to the first 11 columns of the 96 well plate at 4000 parasites per well. The last column contained no compound. Plates were incubated 72 h at 37 °C and 5% CO2. were quantified by spectrophotometrically measuring the β-galactosidase concentration of each well after cell lysis and exposure to chlorophenol red β-galactopyranose (Sigma-Aldrich, St. Louis, MO) substrate. Each compound was tested at least three times in quadruplicate.

[3] = system: T. gondii tachyzoites expressing TgCDPK1 G128M; TgMAPKL-1 L162Q; assay: Proliferation EC50, host fibroblast nuclei count, double mutant; format: cell-based; details: Toxoplasma gondii, Fibroblast, read-out: T. gondii EC50 (±SD) CDPK1 G128M; MAPKL1 L162Q
Experimental: as §1, §2, §3

[4] = system: T. gondii RH strain expressing β-galactosidase, parental; assay: Proliferation EC50, β-galactosidase readout, parental strain; format: cell-based; details: Toxoplasma gondii, 72 h, read-out: T. gondii EC50 (±SD) CONTROL
PfPKG T618Q = PfPKG T618Q (Plasmodium falciparum, UniProt Q8I719, T618Q); assay: PfPKG enzyme activity assay, T618Q gatekeeper mutant; format: biochemical, P. falciparum
Experimental: (§4) Direct inhibition of recombinant PfPKG phosphorylation activity was carried out using a previously described nonradioactive assay. The assay evaluates PfPKG activity based on changes in initial ATP concentration via luminescence after enzyme phosphorylation of peptide substrate PKCtide ([…]) (SignalChem, Richmond, BC Canada). Enzyme kinase activity was measured in the presence of 26 μM PKCtide; 50.1 nM PfPKG; and 20 μM cGMP in a buffered solution containing 20 mM β-glycerol-phosphate, 20 mM MgCl2, 25 mM HEPES pH 7.5 (KOH), 0.1% BSA and 2 mM DTT. The reaction was activated by the addition of 10 μM ATP with incubation at 30 °C and 90 rpm agitation for 120 min. […] Each assay plate contained reaction wells with no enzyme, no PKCtide peptide substrate and no cGMP as internal controls.

TgCDPK1-G128M = target: T1, TgCDPK1-G128M (Toxoplasma gondii, UniProt Q9BJF5, G128M); assay: CDPK enzyme activity assay, TgCDPK1 G128M; format: biochemical, T. gondii
T1 construct: made in house
Experimental: (§5) Recombinant expression of PfCDPK1, PfCDPK4, TgCDPK1 WT, TgCDPK1-G128M, CpCDPK1 and CpCDPK1-G152 M were purified as previously described. […] These reactions were performed in a buffer composed of 1 mM EGTA (pH 7.2), 10 mM MgCl2, 20 mM HEPES pH 7.5 (KOH), 0.1% BSA. The reactions were initiated with addition of 10 μM ATP and 2 mM CaCl2 as enzyme activation reagent. Reaction plates were incubated for 90 min with 90 rpm agitation at 30 °C. […] KinaseGlo (Promega) luminescence-based assay in which luminescence is inversely related to kinase activity and […] was used as previously described.

[5] = system: T. gondii tachyzoites expressing TgPKG T761Q; assay: Proliferation EC50, host fibroblast nuclei count, TgPKG T761Q mutant; format: cell-based
Experimental: as §1, §2, §3

[6] = system: P. falciparum 3D7 (WT) asexual stage parasites; assay: Growth inhibition assay, asexual stage parasites, WT 3D7; format: cell-based; details: Plasmodium falciparum; 3D7 asexual stage parasites, 72 h; mean ± SD, n = 1–2
Experimental: (§6) lines were maintained with O+ human erythrocytes (BioIVT). WT 3D7A10 and T618Q parasites were kind gifts from Dr. David Fidock (Columbia University) and Dr. David Baker (London School of Tropical Medicine and Hygiene), respectively. Growth inhibition assays were performed as previously described. Parasites were grown in RPMI 1640 medium (Sigma-Aldrich, St. Louis, MO, U.S.A.) supplemented with 5 mg/mL Albumax (Gibco), 50 μg/mL hypoxanthine (Sigma-Aldrich), 2 mg/mL Na2CO3 (Sigma-Aldrich), 25 mM HEPES, and 50 μg/mL gentamicin (Gibco). The growth assay was initiated with cultures with >80% ring stage parasites, diluted to a parasitemia of 0.4% and a hematocrit of 1%. Parasites were transferred to a 96-well plate with test compounds, vehicle, or DHA as positive control, and maintained for 72 h in 5% CO2, 5% O2, and 90% N2 in a humidified chamber. Parasite viability at 72 h was determined by addition of SYBR Green I nucleic acid stain (Thermo Fisher Scientific, S7563) and Mitotracker Deep Red (Fisher M422426) followed by flow cytometry on a BD FACSVerse using BD FACSuite software. Data acquired were analyzed using Flowjo software. EC50 values were derived by nonlinear regression in Graph Pad Prism 7.

PfPKG = PfPKG (Plasmodium falciparum, UniProt Q8I719); assay: PfPKG enzyme activity assay, recombinant WT; format: biochemical; details: recombinant enzyme; ADP-Glo assay; mean ± SD, n = 2–3 experiments; read-out: enzyme IC50 (±SD) PfPKG WT
Experimental: as §4

TgCDPK1 WT = target: T2, TgCDPK1 WT (Toxoplasma gondii, UniProt Q9BJF5); assay: biochemical
T2 sequence (Q9BJF5 1-507): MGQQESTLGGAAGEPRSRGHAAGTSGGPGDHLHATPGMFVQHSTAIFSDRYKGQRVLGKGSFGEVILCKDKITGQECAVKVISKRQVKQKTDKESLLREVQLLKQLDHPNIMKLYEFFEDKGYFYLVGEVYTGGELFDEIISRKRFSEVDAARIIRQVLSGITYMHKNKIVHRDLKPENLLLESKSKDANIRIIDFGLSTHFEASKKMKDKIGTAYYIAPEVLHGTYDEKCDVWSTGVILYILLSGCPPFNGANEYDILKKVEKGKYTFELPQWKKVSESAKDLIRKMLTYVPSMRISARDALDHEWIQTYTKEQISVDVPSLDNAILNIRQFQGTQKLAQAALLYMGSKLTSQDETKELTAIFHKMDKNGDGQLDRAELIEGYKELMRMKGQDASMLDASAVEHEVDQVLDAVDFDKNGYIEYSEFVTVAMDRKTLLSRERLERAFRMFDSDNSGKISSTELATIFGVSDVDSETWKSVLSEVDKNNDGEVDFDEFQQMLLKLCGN
Experimental: as §5

[7] = system: P. falciparum T618Q asexual stage parasites; assay: Growth inhibition assay, asexual stage parasites expressing PfPKG T618Q; format: cell-based; details: Plasmodium falciparum, 72 h, read-out: P. falciparum EC50 (±SD) T618Q
Experimental: as §6

[8] = system: T. gondii tachyzoites expressing TgCDPK1 G128M; assay: Proliferation EC50, host fibroblast nuclei count, TgCDPK1 G128M mutant; format: cell-based
Experimental: as §1, §2, §3

CpCDPK1-G152M = target: T3, CpCDPK1-G152M (Cryptosporidium parvum, UniProt A3FQ16, G152M); assay: CDPK enzyme activity assay, CpCDPK1 G152M; format: biochemical, C. parvum
T3 construct: made in house
Experimental: as §5

PfCDPK1 = target: T4, PfCDPK1 (Plasmodium falciparum, UniProt P62344); assay: CDPK enzyme activity assay, PfCDPK1; format: biochemical, P. falciparum
T4 construct: made in house
Experimental: as §5

CpCDPK1 = target: T5, CpCDPK1 (Cryptosporidium parvum, UniProt A3FQ16); assay: CDPK enzyme activity assay, CpCDPK1 WT; format: biochemical, C. parvum
T5 construct: made in house
Experimental: as §5

PfCDPK4 = target: T6, PfCDPK4 (Plasmodium falciparum, UniProt Q8IBS5); assay: CDPK enzyme activity assay, PfCDPK4; format: biochemical, P. falciparum
T6 construct: made in house
Experimental: as §5

[9] = system: strain UGA1 expressing nanoluciferase, replication in HCT-8 cells; assay: Growth inhibition assay in HCT-8 cells (nanoluciferase strain UGA1); format: cell-based, C. parvum; details: Cryptosporidium parvum, 48 h, nanoluciferase readout, (±SD), read-out: EC50 of replication measured in HCT-8 cells
Experimental: strain UGA1 transfected to express nanoluciferase (Nluc) and obtained from the University of Arizona after propagation in newborn calves. HCT-8 cells were added to a 384-well plate and allowed to grow for 48 h to reach 75–90% confluence. The medium was removed, and test compounds were added in serial dilutions prior to the addition of 1000 oocysts per well in RPMI 1640 medium supplemented with 10% heat inactivated FBS and 1% penicillin streptomycin. Plates were incubated for 48 h; Nano-Glo luciferase reagent (Promega, Madison, WI) was then added, and the plates were read on an EnVision multilabel plate reader (PerkinElmer, Waltham, MA). EC50 curves were calculated as previously described using Prism v6.07 (GraphPad Software, La Jolla, CA).

T3 sequence (A3FQ16 whole entry G152M): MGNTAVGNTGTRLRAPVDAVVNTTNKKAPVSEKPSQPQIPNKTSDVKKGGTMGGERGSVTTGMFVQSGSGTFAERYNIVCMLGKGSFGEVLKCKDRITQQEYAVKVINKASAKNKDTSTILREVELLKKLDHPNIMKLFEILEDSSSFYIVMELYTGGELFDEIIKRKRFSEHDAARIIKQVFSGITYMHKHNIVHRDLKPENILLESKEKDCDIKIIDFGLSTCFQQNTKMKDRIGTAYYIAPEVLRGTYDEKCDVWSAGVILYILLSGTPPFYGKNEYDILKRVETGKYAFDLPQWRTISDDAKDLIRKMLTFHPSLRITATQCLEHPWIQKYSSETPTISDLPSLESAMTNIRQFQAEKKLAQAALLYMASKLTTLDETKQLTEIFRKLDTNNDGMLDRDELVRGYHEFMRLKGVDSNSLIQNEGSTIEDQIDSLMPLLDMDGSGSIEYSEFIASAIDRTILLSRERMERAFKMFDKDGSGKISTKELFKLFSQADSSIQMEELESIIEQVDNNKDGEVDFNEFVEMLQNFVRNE
T1 sequence (Q9BJF5 whole entry G128M): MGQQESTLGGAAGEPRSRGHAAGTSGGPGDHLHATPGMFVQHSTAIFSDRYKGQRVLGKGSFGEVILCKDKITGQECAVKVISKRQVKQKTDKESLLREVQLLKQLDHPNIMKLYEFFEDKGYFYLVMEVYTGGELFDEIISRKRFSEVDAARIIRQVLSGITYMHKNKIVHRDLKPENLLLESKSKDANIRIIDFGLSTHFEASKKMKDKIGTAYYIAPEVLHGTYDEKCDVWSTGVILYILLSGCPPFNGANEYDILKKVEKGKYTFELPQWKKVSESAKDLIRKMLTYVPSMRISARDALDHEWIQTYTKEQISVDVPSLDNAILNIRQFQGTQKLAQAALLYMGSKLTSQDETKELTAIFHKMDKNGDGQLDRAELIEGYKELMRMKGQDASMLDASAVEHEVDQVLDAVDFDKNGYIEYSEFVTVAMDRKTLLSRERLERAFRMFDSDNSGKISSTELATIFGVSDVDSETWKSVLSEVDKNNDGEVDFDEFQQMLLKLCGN
T4 sequence (P62344 whole entry): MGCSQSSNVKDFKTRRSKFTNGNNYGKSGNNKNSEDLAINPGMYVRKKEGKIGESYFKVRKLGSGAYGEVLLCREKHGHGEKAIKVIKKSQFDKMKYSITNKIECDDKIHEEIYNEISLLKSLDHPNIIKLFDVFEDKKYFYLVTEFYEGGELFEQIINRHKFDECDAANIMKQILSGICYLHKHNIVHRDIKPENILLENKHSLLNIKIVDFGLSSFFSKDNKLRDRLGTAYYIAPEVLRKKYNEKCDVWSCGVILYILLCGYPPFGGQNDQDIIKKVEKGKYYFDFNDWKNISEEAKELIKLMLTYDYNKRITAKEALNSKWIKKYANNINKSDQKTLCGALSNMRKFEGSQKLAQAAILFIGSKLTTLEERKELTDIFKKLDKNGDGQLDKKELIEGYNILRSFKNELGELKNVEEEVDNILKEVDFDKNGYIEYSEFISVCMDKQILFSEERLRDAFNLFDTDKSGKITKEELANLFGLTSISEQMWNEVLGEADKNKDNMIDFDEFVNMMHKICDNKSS
Sequence of PfPKG (Q8I719 whole entry): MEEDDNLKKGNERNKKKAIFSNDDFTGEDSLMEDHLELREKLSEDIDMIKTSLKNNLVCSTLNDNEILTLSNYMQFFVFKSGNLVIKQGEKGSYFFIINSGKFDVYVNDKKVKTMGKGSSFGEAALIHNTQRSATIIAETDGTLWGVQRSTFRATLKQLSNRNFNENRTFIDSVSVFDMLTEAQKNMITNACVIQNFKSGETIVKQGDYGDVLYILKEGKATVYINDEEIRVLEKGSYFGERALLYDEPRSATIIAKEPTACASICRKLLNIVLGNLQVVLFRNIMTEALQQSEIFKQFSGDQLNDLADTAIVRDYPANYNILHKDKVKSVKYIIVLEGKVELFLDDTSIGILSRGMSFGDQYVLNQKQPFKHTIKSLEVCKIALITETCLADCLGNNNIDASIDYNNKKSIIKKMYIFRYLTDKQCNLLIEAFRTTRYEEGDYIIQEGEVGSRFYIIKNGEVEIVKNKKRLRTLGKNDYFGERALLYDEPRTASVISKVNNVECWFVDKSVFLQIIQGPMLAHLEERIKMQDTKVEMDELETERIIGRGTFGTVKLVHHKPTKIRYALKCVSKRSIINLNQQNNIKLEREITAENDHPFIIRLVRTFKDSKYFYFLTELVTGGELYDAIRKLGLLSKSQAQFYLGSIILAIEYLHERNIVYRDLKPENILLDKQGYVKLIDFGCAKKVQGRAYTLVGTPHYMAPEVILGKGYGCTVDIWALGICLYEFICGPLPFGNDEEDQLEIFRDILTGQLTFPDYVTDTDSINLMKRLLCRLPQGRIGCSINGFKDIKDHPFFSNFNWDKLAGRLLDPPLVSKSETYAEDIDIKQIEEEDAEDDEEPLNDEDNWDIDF
T5 sequence (A3FQ16 1-538): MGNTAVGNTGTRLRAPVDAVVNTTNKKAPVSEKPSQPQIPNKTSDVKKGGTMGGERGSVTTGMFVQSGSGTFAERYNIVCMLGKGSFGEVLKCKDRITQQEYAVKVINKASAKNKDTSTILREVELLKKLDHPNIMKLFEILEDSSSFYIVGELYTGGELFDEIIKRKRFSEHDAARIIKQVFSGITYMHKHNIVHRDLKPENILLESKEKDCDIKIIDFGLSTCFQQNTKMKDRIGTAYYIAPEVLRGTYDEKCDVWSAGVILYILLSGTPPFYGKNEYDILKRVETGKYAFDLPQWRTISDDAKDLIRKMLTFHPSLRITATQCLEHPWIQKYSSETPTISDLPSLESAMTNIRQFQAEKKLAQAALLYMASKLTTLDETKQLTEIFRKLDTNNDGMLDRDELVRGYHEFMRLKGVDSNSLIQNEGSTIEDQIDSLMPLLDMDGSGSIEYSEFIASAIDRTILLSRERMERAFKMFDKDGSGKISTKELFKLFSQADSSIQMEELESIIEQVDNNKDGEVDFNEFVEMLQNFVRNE
Sequence of PfPKG T618Q (Q8I719 whole entry T618Q): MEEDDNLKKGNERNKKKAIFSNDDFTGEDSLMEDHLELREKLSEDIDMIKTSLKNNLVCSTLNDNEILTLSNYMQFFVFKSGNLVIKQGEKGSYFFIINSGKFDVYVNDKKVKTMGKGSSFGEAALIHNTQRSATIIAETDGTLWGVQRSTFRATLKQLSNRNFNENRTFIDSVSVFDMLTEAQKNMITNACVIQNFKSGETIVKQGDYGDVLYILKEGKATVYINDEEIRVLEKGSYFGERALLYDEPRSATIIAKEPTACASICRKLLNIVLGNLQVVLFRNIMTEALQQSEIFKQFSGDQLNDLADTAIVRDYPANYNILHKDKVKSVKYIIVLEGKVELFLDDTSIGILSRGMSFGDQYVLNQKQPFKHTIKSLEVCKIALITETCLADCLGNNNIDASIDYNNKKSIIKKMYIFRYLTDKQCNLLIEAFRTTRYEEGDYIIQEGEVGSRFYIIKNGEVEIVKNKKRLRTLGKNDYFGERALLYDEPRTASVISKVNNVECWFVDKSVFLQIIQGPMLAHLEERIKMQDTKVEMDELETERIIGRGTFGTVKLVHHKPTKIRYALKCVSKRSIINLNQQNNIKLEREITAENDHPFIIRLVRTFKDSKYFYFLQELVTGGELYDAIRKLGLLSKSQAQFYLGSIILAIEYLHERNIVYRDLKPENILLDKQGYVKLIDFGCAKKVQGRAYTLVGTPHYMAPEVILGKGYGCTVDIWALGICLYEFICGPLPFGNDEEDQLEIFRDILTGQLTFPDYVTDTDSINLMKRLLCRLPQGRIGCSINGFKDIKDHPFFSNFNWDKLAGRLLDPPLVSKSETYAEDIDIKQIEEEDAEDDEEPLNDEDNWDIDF
T6 sequence (Q8IBS5 whole entry): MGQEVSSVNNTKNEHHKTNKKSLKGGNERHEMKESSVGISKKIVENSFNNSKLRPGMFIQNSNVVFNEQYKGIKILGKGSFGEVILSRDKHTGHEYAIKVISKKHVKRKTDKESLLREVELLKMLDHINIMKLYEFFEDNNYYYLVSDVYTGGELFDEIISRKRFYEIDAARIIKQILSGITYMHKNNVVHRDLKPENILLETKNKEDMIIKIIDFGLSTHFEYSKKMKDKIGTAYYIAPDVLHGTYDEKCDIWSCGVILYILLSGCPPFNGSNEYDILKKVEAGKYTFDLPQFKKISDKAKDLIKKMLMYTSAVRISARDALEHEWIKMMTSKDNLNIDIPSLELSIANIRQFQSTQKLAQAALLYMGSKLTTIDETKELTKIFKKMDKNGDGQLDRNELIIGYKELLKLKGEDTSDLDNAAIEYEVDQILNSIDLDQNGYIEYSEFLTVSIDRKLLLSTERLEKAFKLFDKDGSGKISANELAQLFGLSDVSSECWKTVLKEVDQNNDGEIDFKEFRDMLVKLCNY

O=C(c1nccs1)N1CC[C@@H](Nc2nccc(-n3cc(C4CC4)nc3-c3ccccc3)n2)C1 [(R)-RY-1-165]
pEC50 ([1]; read-out: T. gondii EC50 (±SD) CONTROL, tachyzoites, parental control of CDPK1 G128M, mean ± SD, n = 3–5): 6.07 | pEC50 ([1]; read-out: T. gondii EC50 (±SD) CONTROL, tachyzoites, parental control of PKG T761Q, mean ± SD, n = 3–5): 6.59 | pEC50 ([1]; read-out: T. gondii EC50 (±SD) CONTROL, tachyzoites, parental control of the double mutant, mean ± SD, n = 3–5): 6.27 | increase in EC50 against TgMAPKL-1 L162Q parasites versus parental strain [2]: did not demonstrate a significant change in EC50 | pEC50 ([2]; Toxoplasma gondii, 72 h, read-out: T. gondii EC50 (±SD) MAPKL1 L162Q): 6.25 | pEC50 [3]: 5.80 | pEC50 [4]: 6.28 | pIC50 (PfPKG T618Q): < 5.00 | pIC50 (TgCDPK1-G128M): < 4.52 | TgCDPK1 G128M mutant enzyme less sensitive (TgCDPK1-G128M; G128M versus WT enzyme): at least 500 fold | pEC50 ([5]; Toxoplasma gondii, Fibroblast, read-out: T. gondii EC50 (±SD) PKGT761Q): 6.41 | change in relative EC50, T761Q parasites versus parental controls ([5]; in 2 experiments): no change | increase in EC50 against T761Q parasites relative to parental controls ([5]; in 3 experiments): 1.8–2.8 fold | pEC50 [6]: 4.96 | pIC50 (PfPKG): 6.62 | pIC50 (TgCDPK1 WT): 7.30 | IC50 for TgCDPK1 lower than for PfCDPK4 (TgCDPK1 WT; TgCDPK1 versus PfCDPK4, 90 min): over 30 fold | pEC50 [7]: 4.87 | EC50 for G128M parasites higher compared to the parental strain ([8]; TgCDPK1 G128M versus parental): 1.7 fold | pEC50 ([8]; Toxoplasma gondii, Fibroblast, read-out: T. gondii EC50 (±SD) CDPK1 G128M): 5.82 | pIC50 (CpCDPK1-G152M): < 4.52 | CpCDPK1 G152M mutant enzyme less sensitive (CpCDPK1-G152M; G152M versus WT enzyme): at least 175 × | pIC50 (PfCDPK1): 5.00 | pIC50 (CpCDPK1): 6.77 | pIC50 (PfCDPK4): 5.77 | pEC50 [9]: 4.75

From article PMC12333026, “Versatile Imidazole Scaffold with Potent Activity against Multiple Apicomplexan Parasites” (ACS Infectious Diseases, 2025)
